Measured values published in patent publication US8633245B2, “PAI-1 inhibitor” (Institute of Medicinal Molecular Design, Inc., priority 2008, dated 2014).
pIC50: −log10 of the molar value. Like-named read-outs stand apart in the source and are kept apart here.

Target: T1, recombinant human PAI-1 (Homo sapiens, UniProt P05121)
T1 construct: purchased Molecular Innovations, Inc
Experiment: Test Example 2: human PAI-1 inhibitory activity (tPA fluorogenic substrate, pH 7.4 HEPES buffer)
Assay type: biochemical
Details: for inhibition at 3 µM: read-out: Inhibition Rate of PAI-1 Activity (%)
Procedure: 0.1 M HEPES, 0.1 M NaCl. 1 mM EDTA. 0.1% Polyethylene glycol 8,000 (Hampton Research Corporation),
2 mM Dimethyldecylphoshine oxide [Apo-10] (Fluka Corporation)

[1] = human PAI-1, compound concentration 0.1 μM
[2] = human PAI-1, compound concentration 0.3 μM
[3] = human PAI-1, compound concentration 1 μM
[4] = human PAI-1, compound concentration 3 μM
[5] = human PAI-1, compound concentration 10 μM
[6] = human PAI-1, compound concentration 25 μM
[7] = human PAI-1, calculated from the inhibition rates

T1 sequence (P05121 24-402): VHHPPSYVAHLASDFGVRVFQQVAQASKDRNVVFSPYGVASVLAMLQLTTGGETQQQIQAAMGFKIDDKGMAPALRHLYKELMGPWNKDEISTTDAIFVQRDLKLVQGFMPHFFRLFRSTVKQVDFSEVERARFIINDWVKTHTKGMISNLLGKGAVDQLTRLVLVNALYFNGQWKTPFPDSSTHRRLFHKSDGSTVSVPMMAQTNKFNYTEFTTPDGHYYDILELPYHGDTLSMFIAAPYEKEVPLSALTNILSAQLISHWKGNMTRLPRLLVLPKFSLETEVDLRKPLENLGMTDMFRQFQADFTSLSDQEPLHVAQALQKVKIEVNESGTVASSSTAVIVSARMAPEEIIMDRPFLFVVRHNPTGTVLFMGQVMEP

SMILES | Inhibition Rate of PAI-1 Activity (%) [1] [%] | Inhibition Rate of PAI-1 Activity (%) [2] [%] | Inhibition Rate of PAI-1 Activity (%) [3] [%] | Inhibition Rate of PAI-1 Activity (%) [4] [%] | pIC50 | Inhibition Rate of PAI-1 Activity (%) [5] [%] | Inhibition Rate of PAI-1 Activity (%) [6] [%] | inhibition at 3 µM [%] | pIC50 [7]
CC(C)(C)c1ccc(Oc2ccc(Oc3ccc(OC(F)(F)F)cc3)cc2OCC(=O)O)cc1 [Compound 537] | 0 | 26 | 92 | 97 |  |  |  |  | 
CCCCN(CC(=O)O)c1cc(-c2ccc(OC(F)(F)F)cc2)ccc1Oc1ccc(C(C)(C)C)cc1 [Compound 428] | 18 | 36 | 92 | 94 |  |  |  |  | 
CCCCCOc1cc(-c2ccc(OC(F)(F)F)cc2)ccc1CN(C(=O)C(=O)O)c1ccc(C(C)(C)C)cc1 [Compound 648] | 4 | 23 | 86 | 89 |  |  |  |  | 
CCCCCOc1ccc(-c2ccc(OC(F)(F)F)cc2)cc1N(CCCCC)C(=O)C(=O)O [Compound 366] |  |  |  |  | 5.97 |  |  |  | 
O=C(O)C(=O)N(CCCCc1ccccc1)c1cc(-c2ccc(OC(F)(F)F)cc2)ccc1OCCCCCO [Compound 676] | 7 | 4 | 60 | >99 |  |  |  |  | 
O=C(O)c1cc(-c2ccc(OC(F)(F)F)cc2)ccc1OCc1ccccc1 [Compound 401] |  |  |  | 15 |  | 17 | 53 |  | 
CCCCC(Oc1cc(Oc2ccc(C(C)(C)C)cc2)cc(-c2ccc(OC(F)(F)F)cc2)c1)C(=O)O (stereo not drawn) [Compound 426] | 10 | 29 | 95 | 97 |  |  |  |  | 
Cc1cc(C)cc(COc2ccc(-c3ccc(OC(F)(F)F)cc3)cc2N(CCCCc2ccccc2)C(=O)C(=O)O)c1 [Compound 662] | 18 | 28 | 98 | 95 |  |  |  |  | 
CC(C)(C)c1ccc(COc2ccc(N3CCN(c4ccc(OC(F)(F)F)cc4)CC3)cc2/C=C/C(=O)O)cc1 [Compound 418] |  |  | 73 | 95 |  | 94 | 90 |  | 
COc1ccc(-c2ccc(OC(F)(F)F)cc2)cc1N(CCCCc1ccccc1)C(=O)C(=O)O [Compound 651] | 0 | 0 | 15 | 74 |  |  |  |  | 
CC(C)(C)c1ccc(Oc2cc(Nc3ccc(OC(F)(F)F)cc3)ccc2/C=C/C(=O)O)cc1 [Compound 531] | 3 | 38 | 94 | 96 |  |  |  |  | 
CC(C)(C)c1ccc(Oc2cc(-c3cc(Cl)ccc3Cl)ccc2CCC(=O)O)cc1 [Compound 484] | 0 | 7 | 73 | >99 |  |  |  |  | 
CC(C)c1ccc(-c2ccc(CCC(=O)O)c(Oc3ccc(C(C)(C)C)cc3)c2)cc1 [Compound 519] | 1 | 19 | >99 | >99 |  |  |  |  | 
CCCCCCCCCOc1cc(-c2ccc(OC(F)(F)F)cc2)ccc1N(CCCCc1ccccc1)C(=O)C(=O)O [Compound 380] |  |  |  |  | > 7.00 |  |  | > 99 | 
CCCCCCCCCOc1ccc(-c2ccc(OC(F)(F)F)cc2)cc1N(CCCCc1ccccc1)C(=O)C(=O)O [Compound 364] |  |  |  |  | 6.96 |  |  |  | 
CC(C)(C)c1ccc(Oc2ccc(-c3cccc(C(F)(F)F)c3)cc2OCC(=O)O)cc1 [Compound 314] |  |  |  |  |  |  |  |  | 5.73
O=C(O)CCc1ccc(-c2ccc(OC(F)(F)F)cc2)cc1Oc1ccc(C(F)(F)F)cc1 [Compound 474] | 2 | 11 | 43 | >99 |  |  |  |  | 
CCCCC(Oc1cc(-c2ccc(OC(F)(F)F)cc2)ccc1OCCCCc1ccc(F)cc1)C(=O)O (stereo not drawn) [Compound 324] |  |  |  |  |  |  |  |  | 6.08
CCCCC(Oc1cc(Oc2ccc(OC(F)(F)F)cc2)ccc1OCc1ccc(C(C)(C)C)cc1)C(=O)O (stereo not drawn) [Compound 308] |  |  |  |  |  |  |  |  | 6.17
CC(C)(C)c1ccc(COc2ccc(-c3ccc(OC(F)(F)F)cc3)cc2C(=O)O)cc1 [Compound 421] | 0 | 3 | 14 | 81 |  |  |  |  | 
CCCCC(Oc1cc(-c2ccc(OC(F)(F)F)cc2)ccc1OCc1ccc(C(C)(C)C)cc1)C(=O)O (stereo not drawn) [Compound 313] |  |  |  |  |  |  |  |  | 6.01

SMILES | Inhibition Rate of PAI-1 Activity (%) [1] [%] | Inhibition Rate of PAI-1 Activity (%) [2] [%] | Inhibition Rate of PAI-1 Activity (%) [3] [%] | Inhibition Rate of PAI-1 Activity (%) [4] [%] | pIC50 | Inhibition Rate of PAI-1 Activity (%) [5] [%] | Inhibition Rate of PAI-1 Activity (%) [6] [%] | inhibition at 3 µM [%] | pIC50 [7]
CC(C)c1ccccc1Oc1cc(-c2ccc(OC(F)(F)F)cc2)ccc1OCC(=O)O [Compound 513] | 17 | 7 | 69 | >99 |  |  |  |  | 
CN(CC(=O)O)c1ccc(-c2ccc(OC(F)(F)F)cc2)cc1Oc1ccc(C(C)(C)C)cc1 [Compound 534] | 13 | 21 | 84 | >99 |  |  |  |  | 
CCCCCN(C(=O)C(=O)O)c1cc(-c2ccc(OC(F)(F)F)cc2)ccc1OCCCCc1ccccc1 [Compound 358] |  |  |  |  |  |  |  |  | 6.05
CC(C)(C)c1ccc(Oc2ccc(Nc3ccc(OC(F)(F)F)cc3)cc2CCC(=O)O)cc1 [Compound 432] | 4 | 0 | 25 | 97 |  |  |  |  | 
CCCCCCCCCCN(C(=O)C(=O)O)c1ccc(-c2ccc(OC(F)(F)F)cc2)cc1 [Compound 669] | 28 | 34 | >99 | >99 |  |  |  |  | 
CC(C)(C)c1ccc(Oc2cc(-c3cc(Cl)ccc3Cl)ccc2OCC(=O)O)cc1 [Compound 455] | 9 | 20 | 93 | 99 |  |  |  |  | 
O=C(O)CCc1cc(-c2ccc(OC(F)(F)F)cc2)ccc1OCCCCCOc1ccc(-c2ccc(OC(F)(F)F)cc2)cc1CCC(=O)O [Compound 544] | 0 | 3 | 56 | 92 |  |  |  |  | 
CC(C)(C)c1cccc(Oc2ccc(-c3ccc(OC(F)(F)F)cc3)cc2OCC(=O)O)c1 [Compound 439] | 12 | 9 | 44 | >99 |  |  |  |  | 
CC(C)(C)c1ccc(Oc2cc(-c3ccc(C(C)(C)C)cc3)ccc2CCC(=O)O)cc1 [Compound 497] | 3 | 24 | >99 | >99 |  |  |  |  | 
CC(C)(C)c1ccc(Oc2cc(-c3ccc(F)cc3)ccc2OCC(=O)O)cc1 [Compound 459] | 26 | 31 | 42 | 86 |  |  |  |  | 
CC(Oc1cc(-c2ccc(OC(F)(F)F)cc2)ccc1/C=C/C(=O)O)c1ccccc1 (stereo not drawn) [Compound 500] | 19 | 14 | 25 | 80 |  |  |  |  | 
CCCCC(C(=O)O)N(Cc1ccc(C(C)(C)C)cc1)c1ccc(-c2ccc(OC(F)(F)F)cc2)cc1 (stereo not drawn) [Compound 642] | 16 | 57 | 94 | 93 |  |  |  |  | 
CCCCCCCCOc1ccc(-c2ccc(OC(F)(F)F)cc2)cc1N(CCCCc1ccccc1)C(=O)C(=O)O [Compound 653] | 43 | 95 | >99 | >99 |  |  |  |  | 
O=C(O)C(=O)N(CCCCc1ccccc1)c1cc(-c2ccc(OC(F)(F)F)cc2)ccc1OCCCC1CCCCC1 [Compound 656] | 24 | 64 | 95 | 88 |  |  |  |  | 
CCCCC(Oc1cc(-c2ccc(OC(F)(F)F)cc2)ccc1Oc1ccc(C(C)(C)C)cc1)C(=O)O (stereo not drawn) [Compound 303] |  |  |  |  |  |  |  |  | 6.27
O=C(O)/C=C/c1ccc(-c2ccc(OC(F)(F)F)cc2)cc1OCCCOCc1ccccc1 [Compound 487] | 0 | 3 | 26 | 98 |  |  |  |  | 
CCCCCOc1cc(-c2cccc(OC(F)(F)F)c2)ccc1N(CCCCc1ccccc1)C(=O)C(=O)O [Compound 393] |  |  |  |  | 6.16 |  |  |  | 
CCCCCOc1cc(-c2ccc(OC(F)(F)F)cc2)ccc1N(CCCCc1ccccc1)CC(=O)O [Compound 643] | 0 | 18 | 38 | 92 |  |  |  |  | 
CC(C)c1ccc(-c2ccc(/C=C/C(=O)O)c(Oc3ccc(C(C)(C)C)cc3)c2)cc1 [Compound 518] | 14 | 54 | >99 | >99 |  |  |  |  | 
CCCCCOc1ccc(-c2ccc(OC(F)(F)F)cc2)cc1N(CCCOc1ccccc1)C(=O)C(=O)O [Compound 356] |  |  |  |  |  |  |  | > 99 | 6.03
